The values that follow are results of earlier work, collected in patent US20030158237A1, “Combination of antioxidant substances for the treatment of alzheimer's disease” (priority 2001, published 2003).

The test system of one series is isolated LDL. The note with it: 0.025-0.3 mg/l added to isolated LDL; dose dependent.
The subject of series [1] is NF-kappa B binding induced by ceramide. The note with it: in comparison with N-acetylcystein, acetate d-alpha-tocopherol, ascorbic acid.
For series [2], the system named is DNA fragmentation induced by low-dose t-BuOOH. The note with it: mouse.
In the next series the test system is 341 patients. The note with it: single-agent therapy, 2 years; vitamin E 2,000 UI/daily, selegiline 10 mg daily.
In series [3] the test system is hippocampal cell cultures.

For `O=C(O)C=Cc1ccc(O)c(O)c1` [caffeic acid, 3-(3,4-Dihydroxyphenyl)-2-propenoic acid], the “time of oxidation of LDL” value in the series with isolated LDL is given as “prolonged”. In addition, in series [1], the “activity of the NF-kappa B binding induced by ceramide” value was “inhibits significantly” and the “apoptotic response induced by ceramide” value is reported as “inhibits significantly”.
As to `NC(=O)c1cccnc1` [nicotinamide], the DNA fragmentation result in series [2] was “able to prevent DNA fragmentation”.
For the molecule `C#CCN(C)[C@H](C)Cc1ccccc1` [selegiline], the retarded cognitive deterioration in the series on 341 patients was 25%.
With vitamin E, the “beta A4 induced cell death” value in series [3] was “reduces beta A4 induced cell death”. Further, the retarded cognitive deterioration in the series on 341 patients was 25%. The “adverse effects with high doses” value (3000 IU) was “indigestion, gastric distress, diarrhea and severe cramps”. The “adverse symptoms (uncommon)” value (in vivo) was “cataract, haemorrhage risk in patient with vitamin K deficiency, and syncope”.
